A short description of data set [1]: log P by potentiometric titration octanol/water (Sirius T3); log D7.4 calculated from pKa and log P. It counts as physicochemical. The note with it: for logD: pH 7.4. As to the method: In addition to gaining an understanding about the metal coordinating properties of the salicylate MBIs by using [(Tp^Ph,Me)Zn(MBI)] model complexes, the physicochemical properties of the MBIs were also studied. The acidity (pKa) and lipophilicity (log P) were measured using potentiometric methods and the lipophilicity at physiological pH (log D7.4) was calculated from these two values (Table 1).[23–25]
(§1) Physicochemical properties were determined using a Sirius T3 instrument.[23–25] […] The pKa of a compound was determined by analysing each MBI sample in triplicate using potentiometric titrations. Experiments were typically performed over a pH range of 2.0–12.0. Standard deviations were derived from fitting all three replicate experiments. For water insoluble compounds methanol was added and the obtained apparent pKa (psKa) was extrapolated to the aqueous pKa by the Yasuda–Shedlovsky procedure. log P was determined via potentiometric titrations in the presence of varying ratios of octanol and water. The presence of octanol shifts the pKa of ionizable species, and based on the shifts, a log P can be determined. Measurements for log P determination were typically performed over a pH range of 2.0–12.0. Three experiments with varying ratios of water:octanol was performed, allowing for a standard deviation to be determined from the fitting of all measurements. MBI sample sizes were ∼0.5 mg for both pKa and log P measurements.

Data set [2] addresses T1, Recombinant human glyoxalase I (GLO1) (Homo sapiens, UniProt Q04760).
T1 construct: purchased R&D Systems 4959-GL
T1 sequence (Q04760 2-184 limits assumed): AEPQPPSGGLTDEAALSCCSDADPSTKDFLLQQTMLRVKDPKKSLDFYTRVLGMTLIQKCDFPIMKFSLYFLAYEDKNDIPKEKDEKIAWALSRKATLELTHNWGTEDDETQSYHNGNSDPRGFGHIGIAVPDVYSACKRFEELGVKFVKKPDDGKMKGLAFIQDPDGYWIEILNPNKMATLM
Further details: method as in previous studies (unpublished). The note with it: ref previous studies (unpublished); read-out: IC50 against GLO1; cited from earlier work.

The target of data set [3] is T2, Human recombinant MMP-3 catalytic domain (Homo sapiens, UniProt P08254).
T2 construct: Human recombinant MMP-3 catalytic domain was purchased; purchased ENZO Life Sciences BML-SE109-9090
T2 sequence (P08254 100-272 limits assumed): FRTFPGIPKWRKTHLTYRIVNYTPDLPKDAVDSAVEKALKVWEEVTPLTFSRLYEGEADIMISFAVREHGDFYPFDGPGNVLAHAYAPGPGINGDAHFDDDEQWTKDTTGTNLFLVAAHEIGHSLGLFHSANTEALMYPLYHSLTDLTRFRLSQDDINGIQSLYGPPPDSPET
Description: MMP-3 enzyme inhibition assay (chromogenic substrate, 412 nm). It counts as biochemical. The note with it: standard deviation in parentheses, read-out: %inhib MMP-3. The method, then:
To probe the selectivity of the salicylate MBIs, the library was screened against matrix metalloproteinase-3 (MMP-3) at fragment concentrations of 100 μM (Table 2).
Human recombinant MMP-3 catalytic domain was purchased from ENZO Life Sciences (catalog # BML-SE109-9090). Assays were carried out in clear Costar 96-well, half-area, flat-bottom assay plates (catalog # 80-2404). Each well contained a total volume of 100 μL including buffer (50 mM MES, 10 mM CaCl2, 0.05% Brij-35, 1 mM DNTB, pH 6.0), MMP-3 (2 U), and the fragment solution. After a 30 min incubation period at 37 °C, the reaction was initiated by the addition of 10 μL of chromogenic MMP-3 substrate (100 μM final concentration, Ac-Pro-Leu-Gly-[2-mercap-to-4-methyl-pentanoyl]-Leu-Gly-OC2H5, ENZO Life Sciences, catalog #BML-P125-0005). Absorbance was monitored at 412 nm using a Bio-Tek ELx 808 colorimetric plate reader, and measurements were recorded every minute for 10 min. The rate of absorbance increase was compared for samples versus negative controls (no inhibitor, arbitrarily set as 100% activity).
5. Single Point screening […]
Figure S5. Single point screening of salicylate MBI library against MMP-3 at 100 µM inhibitor
concentration. NNGH as positive control.

The target in data set [4] is T1, Recombinant human glyoxalase I (GLO1). Description: GLO1 enzyme inhibition assay (absorbance at 240 nm). In kind it is biochemical. The note with it: for inhibition at 100 µM: read-out: %inhib GLO1. As to the method:
To evaluate if the salicylate MBIs could serve as starting points for future FBDD campaigns, the MBI library was screened for inhibitory activity against human glyoxalase I (GLO1) at fragment concentrations of 100 μM (Table 2). […] Recombinant human glyoxalase I (GLO1) was purchased from R&D Systems (catalog #4959-GL). Assays were carried out in 0.1 M sodium phosphate, pH 7.0 buffer, utilizing 96-well clear UV plates (Corning UV Transparent Microplates, catalog #3635). A fresh solution of GSH (100 mM) and methylglyoxal (MG) (100 mM) was prepared in Millipore grade water. […] The substrate mixture was vortexed vigorously for 45 s and then allowed to sit at room temperature for 15 min. The initial well volume was 50 μL containing GLO1 (40 ng) and inhibitor. This protein and inhibitor mixture was incubated for 15–20 min prior to addition of the substrate. […] The enzyme activity was measured utilizing a Biotek Synergy HT or H4 plate reader by measuring absorbance at 240 nm every 1 min for a duration of 8 min. The rate of absorbance increase was compared for samples versus controls containing no inhibitor (set at 100% activity). The absorbance reading for background wells containing DMSO, buffer, and substrate (no enzyme or inhibitor) was subtracted from the experimental wells. […] Dose-response curves were generated, analysed and fitted to obtain IC50 values (see ESI ^†).
5. Single Point screening
Single point screening of salicylate MBI library against GLO1 at 100 µM inhibitor concentration. Chugai 1 (4,6-diphenyl-N-hydroxypyridone) 4 as positive control. […]
6. Dose-response curves against GLO1
The raw data from the GLO1 assay was background corrected and normalized from 0 to 100 with 100 being the largest mean of each dataset. A variable slope log-logistic model was chosen for curve fitting.
The corresponding datapoints are shown as empty bullets and were not included in the curve-fitting. The resulting restricted datasets were fitted according to a literature procedure setting the lower limit of the dose-response curve to zero. This compensates for the loss of information caused by trimming of the dataset. 5,6
Figure S7. Dose-response curve of 11 against GLO1.

The subject of data set [5] is influenza H1N1 N-terminal PA endonuclease (PAN). Description: PAN endonuclease inhibition assay (fluorescent ssDNA-oligo substrate). It counts as biochemical. The note with it: 100 μM; standard deviation in parentheses.
The format of data set [6] is physicochemical. The text has this:
This was confirmed by computationally calculated physicochemical data (Tables S2 and S3 ^†).

Data set [7] in a line: pKa by potentiometric titration (Sirius T3). It counts as physicochemical. The method, then: In addition to gaining an understanding about the metal coordinating properties of the salicylate MBIs by using [(Tp^Ph,Me)Zn(MBI)] model complexes, the physicochemical properties of the MBIs were also studied.
as §1

[8] abbreviates: 100 μM, standard deviation in parentheses.

Read-outs that look alike come from different tables or passages of the source.

What is called logP is the decadic logarithm of the partition coefficient of the neutral form, usually between octanol and water. Broadly, the logD is the decadic logarithm of the distribution of all forms, ionised or not, between an organic phase and buffer at a given pH. Usually IC50 stands for the concentration needed to halve the response being measured. Turning to `O=C(O)c1ccccc1O` [Compound 1, Salicylic acid, reference compound], in data set [1], the logP was 2.18 and the logD is -2.4. Also, the IC50 in data set [2] is above 50 µM. For the same molecule, the inhibition at 100 µM in data set [3] was determined as 8%. In addition, the inhibition at 100 µM in data set [4] (setting [8]) was determined as 22%. Also, in data set [5], the “%inhib Endo (PAN)” value is recorded as 12 (7) %.
Consider `c1ccc2sc(-c3cccc4nc[nH]c34)nc2c1` [Compound 28], for which the “%inhib Endo (PAN)” value in data set [5] is given as 4 (8) %. In addition, in data set [6], the aqueous solubility entry is given as “poor aqueous solubility”.
On to `Oc1ccccc1-c1nc2ccccc2s1` [Compound 11], for which, in data set [3], the inhibition at 100 µM is 0%. Moreover, in data set [4] (setting [8]), the “%inhib GLO1” value is “almost complete inhibition” and the inhibition at 100 µM was determined as 94%. For the same molecule, the IC50 in data set [4] (dose-response curves, read-out: IC50 against GLO1) turned out to be 19.6 ± 4.7 µM. The “%inhib Endo (PAN)” value in data set [5] is 21 (6) %. The aqueous solubility result in data set [6] is on record as “poor aqueous solubility”.
As usually defined, the pKa is the negative logarithm of the acid dissociation constant. Higher therefore signals a group that holds its proton tightly. On to `CONC(=O)c1cccc2nn[nH]c12` [Compound 19], for which the log partition coefficient (logP) in data set [1] was 0.75. In addition, the logD in data set [1] is 0.22. The inhibition at 100 µM was 0% in data set [3] and 17% in data set [4] (setting [8]). The “%inhib Endo (PAN)” value in data set [5] is given as 31 (7) %. In addition, the results for the pKa in data set [7] (pKa) and in data set [7] (pKa (pKa,1)) were 9.93 and 6.99, respectively.
Turning to `CS(=O)(=O)Nc1ccccc1-c1nc2ccccc2s1` [Compound 27], the results for the inhibition at 100 µM in data set [3] and in data set [4] (setting [8]) were 0% and 44%, respectively. In addition, in data set [5], the “%inhib Endo (PAN)” value is on record as 15 (7) %. For the same molecule, the aqueous solubility result in data set [6] is on record as “poor aqueous solubility”.
On to `CONC(=O)c1ccccc1NS(C)(=O)=O` [Compound 16], for which the log partition coefficient (logP) in data set [1] is 0.12. Also, in data set [1], the logD was -0.33. Moreover, the inhibition at 100 µM in data set [3] is 0%; in data set [4] (setting [8]), 16%. Moreover, the “%inhib Endo (PAN)” value in data set [5] is 44 (6) %. Also, the pKa in data set [7] (pKa) was determined as 11.3; in data set [7] (pKa (pKa,1)), 7.15.
`CS(=O)(=O)Nc1ccccc1C(=O)O` [Compound 2]: the logP in data set [1] was 1.39. The log distribution coefficient (logD) in data set [1] was -2.97. Also, the inhibition at 100 µM in data set [3] came out at 11%; in data set [4] (setting [8]), 18%. For the same molecule, the “%inhib Endo (PAN)” value in data set [5] is reported as 1 (9) %. Further, the pKa in data set [7] (pKa) stood at 10.8; in data set [7] (pKa (pKa,1)), 3.04.
`CONC(=O)c1cccc2nc[nH]c12` [Compound 18]: in data set [1], the log partition coefficient (logP) was 0.05. In addition, the log distribution coefficient (logD) in data set [1] was 0.01. Besides, the inhibition at 100 µM in data set [3] was determined as 0%; in data set [4] (setting [8]), 20%. Also, in data set [5], the “%inhib Endo (PAN)” value was 22 (7) %. Moreover, the pKa was 8.4 in data set [7] (pKa), 4.23 in data set [7] (pKa (pKa,1)) and above 12 in data set [7] (pKa (third printed value)).
With `O=C(O)c1cccc2nn[nH]c12` [Compound 5], in data set [1], the logP was 1.38. For the same molecule, the logD in data set [1] is -2.37. Also, the inhibition at 100 µM stood at 0% in data set [3] and 20% in data set [4] (setting [8]). Also, the “%inhib Endo (PAN)” value in data set [5] was 22 (7) %. The pKa in data set [7] (pKa) worked out at 9.29; in data set [7] (pKa (pKa,1)), 3.49.
As to `COC(=O)c1cccc2nn[nH]c12` [Compound 15], in data set [1], the logP is 1.31 and the pH-dependent lipophilicity (logD) is 1.21. Further, the inhibition at 100 µM in data set [3] worked out at 0%. Moreover, the inhibition at 100 µM in data set [4] (setting [8]) stood at 22%. Further, the “%inhib Endo (PAN)” value in data set [5] is reported as 42 (6) %. The molecule also had a pKa in data set [7] (pKa (pKa,1)) of 7.96.

(Values after PMC8849047, “Salicylate metal-binding isosteres as fragments for metalloenzyme inhibition” (Chemical Science, 2022).)
